# Laboratory results from article PMC6211254, “Determination of the inhibitory effects of N-methylpyrrole derivatives on glutathione reductase enzyme” (Journal of Enzyme Inhibition and Medicinal Chemistry, 2018).
# pIC50: −log10 of the molar value. Several values for one entry are separate records, joined by “and”; a condition that tells them apart may be missing. Equal values may be shown once.
# Biological target: T1, GR from baker's yeast (S. cerevisiae) (Saccharomyces cerevisiae, UniProt P41921)
# T1 sequence (P41921 17-483 limits assumed): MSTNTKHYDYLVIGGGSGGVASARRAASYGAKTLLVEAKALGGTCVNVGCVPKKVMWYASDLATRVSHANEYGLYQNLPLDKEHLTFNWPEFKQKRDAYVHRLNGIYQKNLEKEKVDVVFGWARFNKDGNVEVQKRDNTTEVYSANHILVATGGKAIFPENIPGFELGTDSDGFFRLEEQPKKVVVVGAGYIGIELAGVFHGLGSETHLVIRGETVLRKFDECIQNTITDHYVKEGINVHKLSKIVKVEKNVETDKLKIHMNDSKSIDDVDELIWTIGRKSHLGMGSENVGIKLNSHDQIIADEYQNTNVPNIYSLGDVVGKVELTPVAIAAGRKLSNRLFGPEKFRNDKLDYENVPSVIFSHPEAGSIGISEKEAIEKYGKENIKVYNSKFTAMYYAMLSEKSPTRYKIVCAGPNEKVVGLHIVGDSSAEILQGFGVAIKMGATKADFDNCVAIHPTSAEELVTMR
# Test: Glutathione reductase inhibition (Beutler's method, NADPH and GSSG as substrates)
# Format: biochemical
# Conditions: 25 °C, pH 8.0; mean from at least three determinations, errors ±3%; read-out: IC50 values obtained from regression analysis graphs for GR enzyme
# Procedure: Activity of the glutathione enzyme was measured by Beutler’s method[22] in which one enzyme unit is defined as the oxidation of […] NADPH per min under the assay condition at 25 °C, pH 8.0. Different concentrations of the inhibitors were applied to the enzyme solutions and all compounds were tested in triplicate at each concentration used[18–21]. Control cuvette activity was assumed as 100% in the absence of inhibitor. A graphic of activity-versus inhibitor concentration was drawn for each compound (Figure 3).
# In this work, we reported GR inhibitory capacity of N-methylpyrrole derivatives (8a-r). As known, glutathione reductase has been purified from various organisms and the influences of drugs, pesticides and various chemicals on GR activity have been investigated. In the current study, GR from baker's yeast (S. cerevisiae) was used and the inhibitory potentials of the synthetized compounds were determined using Beutler method with NADPH and GSSG as substrates and further kinetic studies were performed using the same method.
row,pIC50,Compound
1,5.85,Cc1ccc(-c2cccn2C)cc1 [Compound 8b]
2,5.82,Cn1cccc1-c1ccc(Br)cc1 [Compound 8e]
3,5.85,Cn1cccc1-c1ccc(F)cc1 [Compound 8i]
4,6.17 and 5.84,COc1ccc(-c2cccn2C)cc1 [Compound 8o]
5,5.75,Cn1cccc1-c1ccc(C#N)cc1 [Compound 8r]

# Further lines, the compound ahead of its results:
row,Compound,pIC50
1,Cn1cccc1-c1ccccc1 [Compound 8a],5.31
2,Cc1cccc(-c2cccn2C)c1 [Compound 8c],5.78
3,Cc1ccccc1-c1cccn1C [Compound 8d],5.98
4,Cn1cccc1-c1ccccc1[N+](=O)[O-] [Compound 8m],6.98
5,COc1ccccc1-c1cccn1C [Compound 8n],6.17
6,Cn1cccc1-c1ccc(OC(F)(F)F)cc1 [Compound 8q],6.07
7,"O=NN(CCCl)C(=O)NCCCl [N,N-bis(2-chloroethyl)-N-nitrosourea, reference compound]",3.19
